What all share (type): cell-based
Assay [1] has as its system HaCaT keratinocytes. In words: Intracellular carbonylated protein (CP) levels in HaCaT keratinocytes cultured with oleic acid (FTSC fluorescence). Particulars: HaCaT keratinocytes cultured in DMEM containing oleic acid at several concentrations for 48 h; FIG. 1. The method, then: Protein carbonylation is initiated by reactive aldehyde compounds which are synthesized by lipid peroxidation. Since skin pores are always immersed by sebum, oleic acid which is one of the sebum components, is used as a source of intracellular synthesis of reactive aldehyde compounds to establish cells with accumulated carbonylated proteins.
Cell culture: HaCaT keratinocytes are cultured in Dulbeco's modified Eagle's medium (DMEM) (Nissui, Tokyo, Japan) supplemented with 5% fetal bovine serum (FBS) (Thermofisher, Waltham, Calif., USA) at 37° C. in 5% CO2 and 95% air.
For this example HaCaT keratinocytes are cultured in DMEM containing oleic acid at several concentrations for 48 h. After fixing with cold methanol for 5 min, cells are reacted with 20 μmol/L FTSC (Sigma-Aldrich, St. Louis, Mo., USA in 0.1 mol/L MES-Na buffer (pH 5.5) at room temperature for 1 h. Fluorescence intensities derived from CPs are measured at Ex/Em 492 nm/516 nm with a fluorescence microplate reader, TECAN SPARK 10M (Mannedorf, Switzerland). Numbers of cells are determined by measuring fluorescence intensities of nuclei stained with Hoechst 33342 (Sigma-Aldrich (St. Louis, Mo., USA)). Intracellular CP levels are calculated as fluorescence intensity of FTSC per fluorescence intensities of nuclei.

Assay [2] concerns HaCaT keratinocytes. Nature of the assay: Protective effect against UVA induced carbonylated protein formation (SDS-PAGE, fluorescent labelling). Particulars: 24 h, UVA 365 nm 33 J/cm^2, in comparison to the control, FIGS. 3 and 4. The method, then:
(§1) HaCaT keratinocytes are cultured in calcium-free DMEM (Dulbecco's Modified Eagle Medium), with 10% SVF, at 37° C. and humid atmosphere, supplemented with 5% CO2 for 24 h.
(§2) After this initial time period the cell cultures are treated with the respective active compound. A non treated sample is used as reference.
(§3) The following active compounds are used in the above method: • Ectoin (Merck KGaA, Germany) 0.5% w/v dissolved in culture medium. • Ectoin (Merck KGaA, Germany) 0.3% w/v dissolved in culture medium • N-acetyl-cysteine (NAC) (Sigma-Aldrich) 2.5 mM, as internal reference
(§4) After a time period of 24 h, stress is induced in the samples by treatment with blue light irradiation (460 nm) or UVA irradiation (365 nm). In addition, samples not treated with an active compound are left non-irradiated for comparison.
UVA irradiation (365 nm): • Source: LED • Irradiance: 50 mW/cm^2 • Dose: 33 J/cm^2 (i.e. less intense than 15 minutes at noon in the middle European sunlight) • Irradiation time: 11 min […]
(§5) In situ detection of carbonylated proteins: After thawing of the samples, protein extraction from cells is performed using OxiProteomics' validated protocols. Extracted proteins are solubilized and quantified by the Bradford method (Bradford, 1976, Anal. Biochem., 72, 248) using calibrated BSA as standard. […] Quantification is obtained from each sample, both for carbonylated and total proteins.

Assay [3] deals with HaCaT keratinocytes. Nature of the assay: Effect of ectoin on suppression of intracellular carbonylated protein accumulation induced by oleic acid. Particulars: 100 mM ectoin pre-treatment for 24 h, then 200 μM oleic acid for 48 h; FIG. 2. How it is done:
The effect of ectoin on carbonylated protein accumulation is analysed. In order to induce Hsp70, HaCaT keratinocytes are cultured with 100 mM ectoin (Merck KGaA, Germany) for 24 h. Cells are cultured with oleic acid for further 48 hours, and CP levels are determined. In this examination, 200 μM oleic acid is used to evaluate the effect of ectoin on CP accumulation in the cells. HaCaT keratinocytes are cultured in DMEM containing 5% FBS and 100 mM ectoin for 24 h. Cells are further cultured with DMEM containing 200 μM oleic acid for 48 h. After fixing with cold methanol for 5 min, cells are reacted with 20 μmol/L FTSC in 0.1 mol/L MES-Na buffer (pH 5.5) at room temperature for 1 h. Fluorescence intensities derived from CPs are measured at Ex/Em 492 nm/516 nm with a fluorescence microplate reader, TECAN SPARK 10M (Mannedorf, Switzerland). Numbers of cells are determined by measuring fluorescence intensities of nuclei stained with Hoechst 33342. Intracellular CP levels are calculated as fluorescence intensity of FTSC per fluorescence intensities of nuclei.

Assay [4] has as its system HaCaT keratinocytes. In words: Protective effect against blue light induced carbonylated protein formation (SDS-PAGE, fluorescent labelling). The settings on record: 24 h, blue light 460 nm 35 J/cm^2, FIGS. 5 and 6. The method, then: as §1, §2, §3, §4
Blue light irradiation (460 nm): • Source: LED • Irradiance: 53 mW/cm^2 • Dose: 35 J/cm^2 (corresponding to the emission of a computer screen during 8 h/d for 3 days) • Irradiation time: 11 min […]
as §5

For the molecule `CCCCCCCC/C=C\CCCCCCCC(=O)O` [oleic acid], in the assay on HaCaT keratinocytes [1], the “level of intracellular CPs” value is listed as “higher level of intracellular CPs”.

For `CC1=N[C@H](C(=O)O)CCN1` [ectoin, (S)-1,4,5,6-tetrahydro-2-methyl-4-pyrimidincarboxylic acid], the “protective effect against UVA induced protein carbonylation” value in the assay on HaCaT keratinocytes [2] (ectoin 0.3% w/v) is recorded as “significant protective effect”; with HaCaT keratinocytes [2] (ectoin 0.5% w/v) it was “No significant comparison”. In addition, the “CP accumulation through oleic acid” value with HaCaT keratinocytes [3] was “suppression of CP accumulation”. The “protective effect against blue light induced protein carbonylation” value in the assay with HaCaT keratinocytes [4] (ectoin 0.3% w/v) and in the assay on HaCaT keratinocytes [4] (ectoin 0.5% w/v) was “significant protective effect” each time.

For the origin of these results see patent publication US20200030214A1, “USE OF COMPATIBLE SOLUTES” (MERCK PATENT GMBH, priority 2017, published 2020).
